Data published in patent publication US20260272851A1, “FORMULATION COMPRISING APOCYNIN AND PAEONOL” (AKL Research & Development Ltd, priority 2022, published 2026).
Where “and” joins values, the source holds several entries; their conditions need not be identical. Equal entries are not always repeated.

Tests used:
Format in all cases: cell-based
[1] = test system: human TC28a2 chondrocyte cells; test: DRAQ7 chondrocyte viability assay (flow cytometry); conditions: 24 h
Method: A novel cell viability assay uses DRAQ7, a marker of apoptosis, necrosis and dead cells. DRAQ7 stains the nuclei in dead and permeabilised cells but not in intact live cells.
To determine the effects of APPA (10 μg/ml) AP (2.3 and 10 μg/ml) and PA (7.7 and 10 μg/ml) on chondrocyte viability, an assay based on DRAQ7™ (Thermo Fisher Scientific) was used. DRAQ7™ is a dye that can be used to show apoptosis, necrosis and dead cells, and the assay includes staining of nuclei in dead and permeabilised cells but not staining of intact live cells.
For the assay, cells were grown in flasks due to higher number of cells required. Following 24 h of different treatments, cells were trypsinised and centrifuged at 1500 rpm for 10 minutes (min). The harvested cells were suspended in 3 µM of the fluorescent dye DRAQ7™ (Thermo Fisher) and incubated in the dark, at room temperature (rt) for 10 min. The samples were run on CytoFLex flow cytometer (Beckman Coulter Inc. Ca, USA). At least 1×10^4 cells per assay were measured. Data were analysed using CyExpert V 2.5 software (Beckman Coulter Inc). […] To establish the position of DRAQ7− and DRAQ7+ gates, one of each negative and positive control was stained with DRAQ7 dye and the other with PBS alone (data not shown).

[2] = test system: primary human chondrocytes; test: SA-β-Gal levels by FDG flow cytometry in primary chondrocytes exposed to etoposide and OSM; conditions: for SA-β-Gal level (Mean ± SEM): Eto-20 μM + OSM = 1; for effect on SA-β-Gal levels, in words: Eto + OSM, AP 2.3 and 10 μg/ml, PA 7.7 and 10 μg/ml individually (FIG. 7b)
CDKN1A (p21) = CDKN1A (p21) relative mRNA expression by RT-PCR; conditions: primary human chondrocytes
From the text: CDKN1 (p21) is a genetic marker for cell senescence that codes for cyclin dependent kinase inhibitor 1A, a regulator of cell cycle progression. The expression of this gene is tightly controlled by the tumor suppressor protein p53. Activated p53 increases the expression of p21 which contributes to senescence. […] Cell-cycle arrest due to an increase in expression of genes that inhibit proliferation, the changes that occur in senescent cells can also result in the increased production of cytokines, growth factors, and matrix metalloproteinase (Loeser R F. Aging and osteoarthritis: the role of chondrocyte senescence and aging changes in the cartilage matrix. Osteoarthritis Cartilage. 2009 August; 17 (8): 971-9). Relative mRNA expression levels of CDKN1 were detected by quantitative real-time (RT)-PCR in presence of positive stimuli +/−10 μg/ml APPA. Data were obtained from eight independent donors. Values are presented as mean±SEM and analyzed by Mann Whitney test (*p≤0.05). RNA extraction was achieved using TRIzol® (Sigma-Aldrich), following the manufacturer's protocol. 0.5 μg of RNA was reversely transcribed into cDNA using Super Script VILO (Thermofisher Scientific, Waltham, Massachusetts, USA) following the manufacturer's instructions. RT-PCR was developed in a LightCycler 480-II Instrument (Roche, Mannheim, Germany) using TaqMan Universal Master Mix (Roche). Analysis of the results was carried out using Qbase+ version 2.5 software (Biogazelle, Ghent, Belgium). Gene expression was calculated relative to the housekeeping gene Glyceraldehyde-3-Phosphate Dehydrogenase (GAPDH). Relative mRNA expression levels of cyclin dependent kinase inhibitor 1A (CDKN1) were detected by quantitative real-time (RT)-PCR in the same manner as above. Data were obtained from six independent donors.

BECN-1 = BECN-1 gene expression by RT-PCR; conditions: primary human chondrocytes; Eto + OSM + PA 7.7 μg/ml (FIG. 7d)
Method: RNA extraction was achieved using TRIzol® (Sigma-Aldrich), following the manufacturer's protocol. 0.5 μg of RNA was reversely transcribed into cDNA using Super Script VILO (Thermofisher Scientific, Waltham, Massachusetts, USA) following the manufacturer's instructions. RT-PCR was developed in a LightCycler 480-II Instrument (Roche, Mannheim, Germany) using TaqMan Universal Master Mix (Roche). Analysis of the results was carried out using Qbase+ version 2.5 software (Biogazelle, Ghent, Belgium). Gene expression was calculated relative to the housekeeping gene Glyceraldehyde-3-Phosphate Dehydrogenase (GAPDH). […] BECN-1 is a regulator of autophagy; the encoded protein, Beclin1, is a component of the phosphatidylinositol-3-kinase (PI3K) complex which mediates vesicle-trafficking processes. Autophagy is a self-degradative process that is important for balancing sources of energy at critical times during development and in response to cell stress. Although autophagy is not a type of cell death, it is important for cartilage homeostasis. […]

[3] = test system: human TC28a2 chondrocyte cells; test: SA-β-Gal activity by FDG flow cytometry in TC28a2 cells exposed to IL-6 or etoposide; conditions: Basal = 1
Method: The immortalized human juvenile chondrocyte cell line T/C28a2 (25), was used in some experiments.
Cells were plated at a density of 5×10^4 cells/well in Corning® CellBIND® multiwell 96 plates (MW 96) (Corning, NY, USA) or 1.8×10^5 cells/well in MW 12 plates (Corning, NY, USA) for analysis. Cells were left to equilibrate overnight in DMEM at 5% or 2% of FBS in 5% CO2 at 37° C.
The effect of APPA on number of senescent cells was therefore evaluated by the quantification of β-galactosidase activity using flow cytometry. β-galactosidase activity was detected using fluorescein di-β-D-galactopyranoside (FDG; Thermo Fisher, Waltham, MA, USA) by flow cytometry. Non-fluorescent FDG is sequentially hydrolysed by β-galactosidase, first to fluorescein monogalactoside and then to highly fluorescent fluorescein. Enzyme-mediated hydrolysis of FDG can be followed by the increase in fluorescence.
These conditions were evaluated with and without 10 μg/ml APPA for 24 h. […] At the end of incubation, cultures were washed with PBS, resuspended by trypsinization and analysed immediately using a FACScalibour flow cytometer (Becton Dickinson). Data were acquired and analysed with Cellquest software (Becton Dickinson). Each fluorescein signal was measured on an FL1 detector and β-galactosidase activity was estimated using the median fluorescence intensity (arbitrary units) of the cell population.

Compound	effect on cell viability (DRAQ7) ([1]; TC28a2, APPA 10, AP 2.3 and 10, PA 7.7 and 10 μg/ml)	SA-β-Gal level (Mean ± SEM) ([2]; Eto + OSM + PA-7.7 μg/ml)	SA-β-Gal level (Mean ± SEM) ([2]; Eto + OSM + PA-10 μg/ml)	effect on SA-β-Gal levels, in words [2]	expression level of CDKN1A (p21) (Mean ± SEM) (CDKN1A (p21); Eto 20 μM + OSM 10 ng/ml + 10 μg/ml (PA 10 μg/ml per text))	BECN-1 gene expression (BECN-1)	percentage of (non-viable) cells positive for DRAQ7 ([1]; human, 10 μg/ml)	SA-β-Gal level (Mean ± SEM) ([3]; Eto-5 μM + AP 2.3 μg/ml)	SA-β-Gal level (Mean ± SEM) ([3]; Eto-5 μM + AP 10 μg/ml)	SA-β-Gal level (Mean ± SEM) ([2]; Eto + OSM + AP-2.3 μg/ml)	SA-β-Gal level (Mean ± SEM) ([2]; Eto + OSM + AP-10 μg/ml)	expression level of CDKN1A (p21) (Mean ± SEM) (CDKN1A (p21); Eto 20 μM + OSM 10 ng/ml + AP 2.3 μg/ml)	expression level of CDKN1A (p21) (Mean ± SEM) (CDKN1A (p21); Eto 20 μM + OSM 10 ng/ml + AP 10 μg/ml)	effect on CDKN1A (p21) expression, in words (CDKN1A (p21); Eto + OSM, AP at 2.3 and 10 μg/ml)
COc1ccc(C(C)=O)c(O)c1 [PA, 2-hydroxy-4-methoxyacetophenone]	do not affect cell viability	0.9844	0.9622	no significant effects	0.869 ±0.17 and 0.8635 ± 0.17	significantly counteracted								
COc1cc(C(C)=O)ccc1O [AP, 4-hydroxy-3-methoxyacetophenone]				no significant effects			5.05%	0.9191	0.8948	0.9947	1.01	1.0102 ± 0.25	1.617 ± 0.32	neither concentration of AP nor PA 7.7 μg/ml had any significant effect
